Measured values reported in patent US4303659A, “Schistosomicidal compositions” (Pfizer Inc., priority 1979, dated 1981).
Where two headings read alike, the source gives them in different places.

System: Puerto Rican strain of Schistosoma mansoni
Assay: Effectiveness in treatment of schistosomiasis in infected mice (worm kill after oral dosing, perfusion and liver count 14 days post treatment)
Assay type: in vivo
Settings: 336 h, oral gavage
Description: Male mice are infected with 100 cercariae of Schistosoma mansoni and used 8-10 weeks post infection. The test compound(s) are suspended (at the desired concentration level) in a 10% solution of Cremophor EL in 0.2 M phosphate buffer at pH 7.0 (Cremophor EL is the registered trademark name of Badische Anilin und Soda-Fabrik of Ludwigshafen, West Germany for glycerol-polyethylene glycolricinoleate).
The resulting mixture is then administered to the mice by an oral gavage needle, using 0.3 ml. of the above suspension for a 30-gram animal. Fourteen days post treatment, the mice are killed by cervical dislocation and living worms are recovered from the blood vessels by perfusion. The liver is then removed and compressed between two glass plates, and the encapsulated (i.e., dead) worms are counted.
Effective doses required to kill 50% and 99% of male worms (i.e., ED50 and ED99 values, respectively) are calculated from the regression line of the dose response data.

Structure (SMILES) | ED50 (compound alone, dose to kill 50% of male worms) | ED99 (compound alone, dose to kill 99% of male worms) | ED50 (oxamniquine in combination with 25 mg./kg. of praziquantel, 50% of male worms killed) | ED99 (oxamniquine in combination with 25 mg./kg. of praziquantel, 99% of male worms killed) | ED50 (compound alone, dose to kill 50% of male worms, read-out: ED50) | ED50 (praziquantel in combination with 12.5 mg./kg. of oxamniquine, 50% of male worms killed, read-out: ED50)
CC(C)NCC1CCc2cc(CO)c([N+](=O)[O-])cc2N1 (racemic) [Oxamniquine, dl-6-hydroxymethyl-2-isopropylaminomethyl-7-nitro-1,2,3,4-tetrahydroquinoline] | 39 mg/kg | 89 mg/kg | 8.6 mg/kg | 16.6 mg/kg | – | –
O=C(C1CCCCC1)N1CC(=O)N2CCc3ccccc3C2C1 (stereo not drawn) [Praziquantel, 2-cyclohexylcarbonyl-4-oxo-1,2,3,6,7,11b-hexahydro-4H-pyrazino [2,1a]isoquinoline] | – | – | – | – | 156 mg/kg | 4.9 mg/kg
